{
  "source": "patent US10105384B2",
  "about": "“Nucleic acids targeting TCTP for use in the treatment of chemo- or hormone-resistant cancers” (INSTITUT NATIONAL DE LA SANTE ET DE LA RECHERCHE MEDICALE …, priority 2010, dated 2018)",
  "key": {"LNCaP cells": {"test_system": "LNCaP cells", "experiment": "Crystal violet cell growth assay, LNCaP cells", "assay_type": "cell-based, human", "procedure": "In brief, cells were seeded in each well of 12-well microtiter plates (30 000 to 50 000 cells per well) and allowed to attach overnight. To study the effect of TCTP downregulation on apoptosis induced by docetaxel, PC-3 cells were transiently transfected the day after seeding with 5 nM of TCTP siRNA for 48 h or 100 nM of TCTP ASO for 72 h. Cells were then treated with 50 nM of docetaxel and MTT assays were performed after 24 h. To assess the effect of TCTP downregulation on Hsp27 cytoprotection, LNCaP-Mock and -Hsp27 cells were transiently transfected the day after seeding with 5 nM of TCTP siRNA for 48 h. The down- or upregulation of TCTP effect on LNCaP and C4-2 cell viability was realized after transient transfections with 100 nM of TCTP ASO or 0.02 μg/μl of pDEST-TCTP for 72 h and 48 h respectively. Cells were then treated with 1 nM of docetaxel in serum-free media (mimics androgen withdrawal in vitro) and crystal violet assays were performed the day after. Each assay was performed in triplicate.\nFinally, in order to assess if TCTP ASO has the same effect on prostatic cancer cell lines expressing the androgen receptor (AR), crystal violet dye was used to examin LNCaP and C4-2 cell growth. LNCaP and C4-2 were treated with 100 nM TCTP or control ASO (FIGS. 15 A and B) for 2 days. Then, LNCaP and C4-2 cells were incubated with 1 nM of docetaxel in serum-free media."}, "TCTP": {"test_system": "TCTP", "experiment": "ASO sequences screening: TCTP expression by western blot and/or qRT-PCR", "assay_type": "cell-based, human", "details": "WB and/or qRT-PCR, PC-3 cells overexpressing TCTP", "procedure": "Western Blot analysis was performed as described previously (Rocchi et al., 2004, Cancer Res. 64:6595-602) with 1:5000 rabbit anti-Hsp27 polyclonal antibody (Assay Designs, Villeurbanne, France), 1:2000 rabbit TCTP polyclonal antibody (Abcam Inc., Cambridge, UK), 1:250 rabbit anti-MSL1v1 polyclonal antibody (Abcam Inc.), 1:500 mouse anti-ubiquitin monoclonal antibody (Santa Cruz Biotechnology Inc., Heidelberg, Germany) or 1:1000 rabbit anti-caspase-3 polyclonal antibody (Cell Signalling Technology Inc., Danvers, USA). Loading levels were normalized using 1:5000 rabbit anti-glyceraldehyde-3-phosphate dehydrogenase polyclonal (Abcam Inc.) or 1:2500 mouse anti-vinculine monoclonal antibodies (Sigma Chemical Co., St Louis, Mo., USA).\nThe quantitative reverse transcription polymerase chain reaction (qRT-PCR) analysis was done on a LightCycler detection system (Roche Applied Science, Meylan, France). Expression levels of 18S subunit of the ribosome gene were used as an internal control. First strand cDNA was synthesized from 1 μg of total RNA using random hexamers and expanded by reverse transcriptase according to the manufacturer's instructions (ImProm-II Reverse Transcription System, Promega, Charbonniéres-les-Bains, France), subsequently diluted 1:10 with water, and stored at −20° C. until use. TCTP and 18S polymerase chain reaction (PCR) products were detected by quantitative real time PCR (qRT-PCR) using the SYBR Premix Ex Taq (Takara Bio Inc, St Germain en Laye, France) following the manufacturer's instructions. Five microliters of diluted cDNA template were mixed with 10 μl SYBR Premix Ex Taq (including Taq polymerase, reaction buffer, MgCl2, SYBR green I dye, and deoxynucleotide triphosphate mix) and 0.4 μM forward and reverse primers, in a final volume of 20 μl. The following primers were used: TCTP forward 5′-[…]-3′ (SEQ ID NO: 8) and TCTP reverse 5′-[…]-3′; (SEQ ID NO: 9); 18S forward 5′-[…]-3′ (SEQ ID NO: 10) and 18S reverse 5′-[…]-3′ (SEQ ID NO: 11). After an initial Taq activation for 10 seconds at 95° C., Light Cycler PCR was done using 55 cycles with the following cycling conditions: 95° C. for 5 seconds, 58° C. for 7 seconds, and 72° C. for 14 seconds. Each sample was analyzed in duplicate and the experiment was repeated three times. Results were analyzed using RealQuant data analysis software (Roche, Neuilly-sur-seine, France). The results analysis was done with the 2(-Delta Delta C(T)) Method (Livak K J. et al., 2001; Methods. 25:402-8).\nIn order to find a sequence ASO having an inhibiting effect on TCTP expression, 30 ASO sequences have been designed 26 of which are shown in table 1. Said 30 sequences cover the TCTP mRNA (accession number NM_003295). Using BLAST program, the specificity of said sequences has been studied. Among said 30 sequences, only 15 sequences have been identified as being specific for TCPT mRNA sequence (see table 1). The effect of said ASO sequences on TCTP expression was tested by western blot analysis (WB) and/or by quantitative reverse transcription polymerase chain reaction (qRT-PCR) on PC-3 cells overexpressing TCTP. WB and qRT-PCR were performed as exposed in example 1."}},
  "data": [
    {"substance": "5′-ACCAATGAGCGAGTCATCAA-3′ (phosphorothioate backbone, further chemistry not given here) [ASO10]", "values": [
      {"measurement": "LNCaP cell growth", "setting": "LNCaP cells; 100 nM ASO for 2 days", "result": "considerably decrease"},
      {"measurement": "sensitivity to docetaxel and androgen withdrawal", "setting": "LNCaP cells; LNCaP, 100 nM ASO 2 days then 1 nM docetaxel in serum-free media", "result": "enhance treatments (docetaxel and androgen withdrawal) sensitivity"},
      {"measurement": "ability to inhibit TCTP expression", "setting": "TCTP", "result": "strong ability to inhibit TCTP expression"},
      {"measurement": "best ability to inhibit specifically TCTP expression", "setting": "TCTP", "result": "best ability to inhibit specifically TCTP expression"}
    ]}
  ]
}
